Data on one molecule can be found in the NIST ThermoML archive (doi:10.1021/acs.jced.9b00703).

± gives the expanded uncertainty stated by the source.

For data set [1] the following is noted: Crystal; DSC.
The nature of data set [2]: Molar enthalpy of transition or fusion. The note with it: Crystal; DSC.

For `OC[C@H]1O[C@@H](Oc2ccc(O)cc2)[C@H](O)[C@@H](O)[C@@H]1O` [β-arbutin], the Triple point temperature in data set [1] is 475.25 ± 0.87 K. Further, the “Molar enthalpy of transition or fusion” value in data set [2] is 10.7 ± 0.382 kcal/mol.
